In patent US20220380341A1, “INHIBITORS OF HIV-1 NEF FOR THE TREATMENT OF HIV DISEASE” (priority 2018, published 2022):
Read-outs that look alike come from different tables or passages of the source.

Tests used:
HIV-1 NefNL4-3 = HIV-1 NefNL4-3 (Human immunodeficiency virus type 1 group M subtype B, UniProt P03406, A33V/T15A/T51N/V11I); assay: Surface plasmon resonance binding to recombinant full-length Nef (NL4-3); settings: for RU30/RUNef (extent of binding): response units at 30 μM relative to Nef immobilized on the SPR chip; for Nef NL4-3 Binding, SPR 1:1 or 2-site fitting KD1: 1:1 Langmuir fit where the KD2 cell says '1 to 1 fitting', else 2-site fit
HIV-1NL4-3 = assay: HIV-1 infectivity assay in TZM-bl reporter cell line (LTR-luciferase, 48 h); assay type: cell-based; settings: Human immunodeficiency virus 1, TZM-bl
Method in brief: (§1)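 Nef-dependent infectivity in TZM-bl cells: HIV-1NL4-3 infection with 1 μM compound, luciferase read at 48 h, normalized against DMSO wild-type and Nef-defective controls. Compound cytotoxicity in uninfected cells measured by Cell Titer Blue.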

TZM-bl cell line = assay type: cell-based; settings: human, 1 μM
Method in brief: as §1

[1] = 48 h, Table 1, TZM-bl cells, 1 μM, 48 h, 100% = Nef-defective HIV-1, read-out: HIV-1 Infectivity % Inhibition Norm. to Δ-Nef @ 1 μM
[2] = KD, M, Table 4, SPR fit 1:1 Langmuir, KD = koff/kon
[3] = Table 4, 1:1 Langmuir fit, T = 1/koff
[4] = 1.0 μM, TZM-bl reporter cell line, Table 4, read-out: % Infectivity Inhibition
[5] = KD, M, Table 4, SPR fit 2-step induced fit, KD = koff/kon × koff2/(koff2 + kon2)
[6] = Nef NL4-3 Binding, SPR 2-state fitting KD, Table 1, 2-step induced-fit model
[7] = Table 4, 2-step induced fit, T = 1/koff2
[8] = read-out: Nef NL4-3 Binding, SPR 1:1 or 2-site fitting KD2, Table 1, 2-site fit, second component

Compound | Kd (HIV-1 NefNL4-3) | inhibition at 1 µM (HIV-1NL4-3; [1]) | Percent Viability @ 1 μM (TZM-bl cells) (TZM-bl cell line) | Kd (HIV-1 NefNL4-3; [2]) | T, minutes (residence time) (HIV-1 NefNL4-3; [3]) | RU30/RUNef (extent of binding) (HIV-1 NefNL4-3) | inhibition at 1 µM (HIV-1NL4-3; [4]) | % Cell Viability (TZM-bl cell line) | Nef NL4-3 Binding, SPR 1:1 or 2-site fitting KD1 (HIV-1 NefNL4-3; Table 1) | Kd (HIV-1 NefNL4-3; [5]) | Kd (HIV-1 NefNL4-3; [6]) | T, minutes (residence time) (HIV-1 NefNL4-3; [7]) | Kd (HIV-1 NefNL4-3; [8]) | inhibition at 1 µM (HIV-1NL4-3; 48 h, Table 2, TZM-bl cells, 1 μM, 48 h, 100% = Nef-defective HIV-1, read-out: HIV-1 Infectivity % Inhibition Norm. to Δ-Nef @ 1 μM)
Oc1c(CCc2ccc(F)cc2)c(C2CCN(Cc3ccncc3)CC2)nn1-c1nc2ccccc2[nH]1 [Compound I-804, 1-(1H-1,3-benzodiazol-2-yl)-4-[2-(4-fluorophenyl)ethyl]-3-{1-[(pyridin-4-yl)methyl]piperidin-4-yl}-1H-pyrazol-5-ol] | 90.8 nM | 50% | 97.5% |  |  |  |  |  |  |  |  |  |  | 
Oc1c(CCc2ccc(F)cc2)c(C2CCN(CC3CCOCC3)CC2)nn1-c1nc2ccccc2[nH]1 [Compound I-806, 1-(1H-1,3-benzodiazol-2-yl)-4-[2-(4-fluorophenyl)ethyl]-3-{1-[(oxan-4-yl)methyl]piperidin-4-yl}-1H-pyrazol-5-ol] | 9900 nM | 20.6% | 99.1% | 9900 nM | 1.79E + 00 minutes | 7.48E- 04 | 20.6% | 99.1% |  |  |  |  |  | 
Oc1c(CCc2ccc(F)cc2)c(CC2CCN(Cc3ccccn3)CC2)nn1-c1nc2ccccc2[nH]1 [Compound I-807, 1-(1H-1,3-benzodiazol-2-yl)-4-[2-(4-fluorophenyl)ethyl]-3-({1-[(pyridin-2-yl)methyl]piperidin-4-yl}methyl)-1H-pyrazol-5-ol] |  | 40.4% | 99.0% |  |  |  |  |  | No Interaction |  |  |  |  | 
Oc1c(CCc2ccc(F)cc2)c(CC2CCN(Cc3cccnc3)CC2)nn1-c1nc2ccccc2[nH]1 [Compound I-808, 1-(1H-1,3-benzodiazol-2-yl)-4-[2-(4-fluorophenyl)ethyl]-3-({1-[(pyridin-3-yl)methyl]piperidin-4-yl}methyl)-1H-pyrazol-5-ol] |  | 12.8% | 102.6% |  |  |  |  |  | No Interaction |  |  |  |  | 
Oc1c(CCc2ccc(F)cc2)c(CC2CCN(Cc3ccncc3)CC2)nn1-c1nc2ccccc2[nH]1 [Compound I-809, 1-(1H-1,3-benzodiazol-2-yl)-4-[2-(4-fluorophenyl)ethyl]-3-({1-[(pyridin-4-yl)methyl]piperidin-4-yl}methyl)-1H-pyrazol-5-ol] | 2740 nM | 14.1% | 97.9% |  |  |  |  |  |  |  |  |  |  | 
Oc1c(CCc2ccc(F)cc2)c(CNCc2ccncc2)nn1-c1nc2ccccc2[nH]1 [Compound I-810, 1-(1H-1,3-benzodiazol-2-yl)-4-[2-(4-fluorophenyl)ethyl]-3-({[(pyridin-4-yl)methyl]amino}methyl)-1H-pyrazol-5-ol] | 70.7 nM | 42.8% | 101.3% |  |  | 3.75E- 03 | 42.8% | 100% |  | 3580 nM | 3580 nM | 5.97E + 00 minutes | 3190 nM | 
Oc1c(CCc2ccc(F)cc2)c(CNCc2cccnc2)nn1-c1nc2ccccc2[nH]1 [Compound I-811, 1-(1H-1,3-benzodiazol-2-yl)-4-[2-(4-fluorophenyl)ethyl]-3-({[(pyridin-3-yl)methyl]amino}methyl)-1H-pyrazol-5-ol] | 559 nM | 8.3% | 100.7% |  |  | 3.57E- 03 | 8.3% | 100% |  | 12600 nM | 12600 nM | 3.83E- 01 minutes | 2380 nM | 
Oc1c(CCC2CCN(c3ncc(F)cn3)CC2)c(C2CC2)nn1-c1nc2cc(Cl)ccc2[nH]1 [Compound I-901, 1-(5-chloro-1H-1,3-benzodiazol-2-yl)-3-cyclopropyl-4-{2-[1-(5-fluoropyrimidin-2-yl)piperidin-4-yl]ethyl}-1H-pyrazol-5-ol] | 481 nM | 14.3% | 105.0% |  |  | 2.23E- 03 | 14.3% | 100% |  | 0.0153 nM | 0.0153 nM | 2.46E + 05 minutes |  | 
COc1cc(N2CCC(CCc3c(C4CC4)nn(-c4nc5cc(Cl)ccc5[nH]4)c3O)CC2)nc(OC)n1 [Compound I-902, 1-(5-chloro-1H-1,3-benzodiazol-2-yl)-3-cyclopropyl-4-{2-[1-(2,6-dimethoxypyrimidin-4-yl)piperidin-4-yl]ethyl}-1H-pyrazol-5-ol] | 6.58 nM | 13.8% | 106.5% |  |  | 7.18E- 03 | 13.8% | 100% |  | 0.00367 nM | 0.00367 nM | 1.46E + 06 minutes |  | 
Oc1c(CCc2ccc(F)cc2)c(C2CCCN(CC(F)(F)F)C2)nn1-c1nc2ccccc2[nH]1 (stereo not shown) [Compound I-1002, 1-(1H-1,3-benzodiazol-2-yl)-4-[2-(4-fluorophenyl)ethyl]-3-[1-(2,2,2-trifluoroethyl)piperidin-3-yl]-1H-pyrazol-5-ol] |  | 22.7% | 96.4% |  |  |  |  |  |  |  |  |  | 1710 nM | 
Oc1c(CCc2ccc(F)cc2)c(C2CCN(CC(F)(F)F)CC2)nn1-c1nc2ccccc2[nH]1 [Compound I-1003, 1-(1H-1,3-benzodiazol-2-yl)-4-[2-(4-fluorophenyl)ethyl]-3-[1-(2,2,2-trifluoroethyl)piperidin-4-yl]-1H-pyrazol-5-ol] | 1810 nM | 42.3% | 100.9% |  |  |  |  |  |  |  |  |  |  | 
Oc1c(CCc2ccc(F)cc2)c(CC2CCN(CC(F)(F)F)CC2)nn1-c1nc2ccccc2[nH]1 [Compound I-1004, 1-(1H-1,3-benzodiazol-2-yl)-4-[2-(4-fluorophenyl)ethyl]-3-{[1-(2,2,2-trifluoroethyl)piperidin-4-yl]methyl}-1H-pyrazol-5-ol] | 354 nM | -12.3% | 101.3% | 354 nM | 2.82E + 01 minutes | 2.27E- 03 | 0% | 100% |  |  |  |  |  | 
Oc1c(CC2CCN(CC(F)(F)F)CC2)c(-c2ccc(C(F)(F)F)cc2)nn1-c1nc2ccccc2[nH]1 [Compound I-1005, 1-(1H-1,3-benzodiazol-2-yl)-4-{[1-(2,2,2-trifluoroethyl)piperidin-4-yl]methyl}-3-[4-(trifluoromethyl)phenyl]-1H-pyrazol-5-ol] | 91 nM | 49.2% | 93.5% | 91 nM | 9.47E + 00 minutes | 1.26E- 03 | 49.2% | 93.5% |  |  |  |  |  | 
Oc1c(CCC2CCN(CC(F)(F)F)CC2)c(-c2ccc(C(F)(F)F)cc2)nn1-c1nc2ccccc2[nH]1 [Compound I-1006, 1-(1H-1,3-benzodiazol-2-yl)-4-{2-[1-(2,2,2-trifluoroethyl)piperidin-4-yl]ethyl}-3-[4-(trifluoromethyl)phenyl]-1H-pyrazol-5-ol] | 472 nM | 83.1% | 85.2% |  |  | 5.08E- 03 | 83.1% | 85.2% |  | 1.24 nM | 1.24 nM | 1.80E + 04 minutes | 15100 nM | 
O=C(O)c1ccc(-c2nn(-c3nc4ccccc4[nH]3)c(O)c2CCc2ccc(F)cc2)cc1 [Compound I-1101, 4-[1-(1H-1,3-benzodiazol-2-yl)-4-[2-(4-fluorophenyl)ethyl]-5-hydroxy-1H-pyrazol-3-yl]benzoic acid] | 376 nM | -9.9% | 99.3% |  |  |  |  |  |  |  |  |  |  | 
O=C(NCC1CC1)c1ccc(-c2nn(-c3nc4ccccc4[nH]3)c(O)c2CCc2ccc(F)cc2)cc1 [Compound I-1201, 4-[1-(1H-1,3-benzodiazol-2-yl)-4-[2-(4-fluorophenyl)ethyl]-5-hydroxy-1H-pyrazol-3-yl]-N-(cyclopropylmethyl)benzamide] | 369 nM | 11.8% | 95.4% |  |  | 2.17E- 02 | 11.8% | 95.4% |  | 740 nM | 740 nM | 2.06E + 03 minutes | 2510 nM | 
Nc1c(CCc2ccc(F)cc2)c(-c2ccc(Cl)cc2)nn1-c1nc2ccccc2[nH]1 [Compound I-1401, 1-(1H-1,3-benzodiazol-2-yl)-3-(4-chlorophenyl)-4-[2-(4-fluorophenyl)ethyl]-1H-pyrazol-5-amine] |  | -34.5% | 99.7% |  |  |  |  |  | No Interaction |  |  |  |  | 
Nc1c(CCC2CCOCC2)c(-c2ccc(F)cc2)nn1-c1cc(C(F)(F)F)n[nH]1 [Compound I-1402] | 4750 nM |  | 102.2% |  |  |  |  |  |  |  |  |  |  | 8.7%
